Measured values from ChEMBL document CHEMBL6096690, “Synthesis and Biological Evaluation of Peripheral HTR2A Antagonists for Colorectal Cancer” (J Med Chem, 2025).

Key:
[1] = biological target: 5-hydroxytryptamine receptor 2A (Homo sapiens, UniProt P28223); assay: Antagonist activity at 5HTR2A (unknown origin) assessed as inhibition of 5-HTR2A
[2] = biological target: hERG (KCNH2) (Homo sapiens, UniProt Q12809); assay: Inhibition of hERG at 10 uM relative to control; assay type: toxicity
Chain of hERG (KCNH2) (Q12809 whole entry): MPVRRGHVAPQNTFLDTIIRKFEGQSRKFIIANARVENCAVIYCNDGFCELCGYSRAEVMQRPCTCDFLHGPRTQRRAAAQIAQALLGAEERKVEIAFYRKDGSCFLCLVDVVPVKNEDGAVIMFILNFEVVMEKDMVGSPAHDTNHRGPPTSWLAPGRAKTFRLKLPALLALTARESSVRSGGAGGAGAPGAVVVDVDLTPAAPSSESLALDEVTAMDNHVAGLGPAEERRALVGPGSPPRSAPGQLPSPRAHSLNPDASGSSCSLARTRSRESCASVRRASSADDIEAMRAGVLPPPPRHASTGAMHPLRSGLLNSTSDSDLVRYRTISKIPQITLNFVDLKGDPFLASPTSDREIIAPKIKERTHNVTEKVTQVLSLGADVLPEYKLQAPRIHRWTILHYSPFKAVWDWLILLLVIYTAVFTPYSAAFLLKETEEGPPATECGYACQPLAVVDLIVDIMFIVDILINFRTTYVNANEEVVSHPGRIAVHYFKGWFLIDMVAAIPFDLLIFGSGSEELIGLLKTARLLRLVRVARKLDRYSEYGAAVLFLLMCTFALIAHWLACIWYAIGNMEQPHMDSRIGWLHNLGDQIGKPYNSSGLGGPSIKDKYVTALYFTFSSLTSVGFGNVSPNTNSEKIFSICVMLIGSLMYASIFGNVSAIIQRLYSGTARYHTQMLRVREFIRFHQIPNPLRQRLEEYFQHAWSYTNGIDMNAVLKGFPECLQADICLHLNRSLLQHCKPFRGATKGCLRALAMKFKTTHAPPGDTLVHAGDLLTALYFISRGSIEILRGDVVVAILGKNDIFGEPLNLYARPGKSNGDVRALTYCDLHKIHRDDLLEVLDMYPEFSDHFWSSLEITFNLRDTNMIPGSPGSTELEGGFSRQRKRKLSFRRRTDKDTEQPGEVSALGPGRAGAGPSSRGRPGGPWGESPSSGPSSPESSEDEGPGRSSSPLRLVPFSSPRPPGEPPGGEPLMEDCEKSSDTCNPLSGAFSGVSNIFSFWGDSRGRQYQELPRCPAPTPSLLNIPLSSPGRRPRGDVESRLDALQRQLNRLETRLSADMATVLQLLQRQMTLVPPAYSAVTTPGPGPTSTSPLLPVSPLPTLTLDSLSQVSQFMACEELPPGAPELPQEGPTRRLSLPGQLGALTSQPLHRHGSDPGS

Chain of 5-hydroxytryptamine receptor 2A (P28223 whole entry): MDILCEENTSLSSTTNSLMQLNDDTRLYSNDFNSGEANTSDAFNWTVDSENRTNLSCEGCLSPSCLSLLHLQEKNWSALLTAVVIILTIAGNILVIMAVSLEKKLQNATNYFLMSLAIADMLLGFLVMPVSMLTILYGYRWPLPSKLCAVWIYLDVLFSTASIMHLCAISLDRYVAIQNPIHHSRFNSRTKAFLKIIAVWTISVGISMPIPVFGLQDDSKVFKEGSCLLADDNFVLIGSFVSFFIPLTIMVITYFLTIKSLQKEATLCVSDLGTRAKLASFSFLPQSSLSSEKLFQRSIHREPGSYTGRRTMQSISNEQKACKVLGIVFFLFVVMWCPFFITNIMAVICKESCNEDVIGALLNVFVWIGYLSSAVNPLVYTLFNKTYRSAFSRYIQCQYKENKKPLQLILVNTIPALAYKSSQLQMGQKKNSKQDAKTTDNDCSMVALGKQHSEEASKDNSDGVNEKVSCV

O=C(NCc1ccc(OCC(O)CN2CCC(C3c4ccc(Cl)cc4CCc4cccnc43)CC2)cc1)N(Cc1ccc(F)cc1)C1CCNCC1 (stereo not given)
IC50 [1]: 0.82 µM

O=C(NCc1ccc(OCC(O)CN2CCN(c3noc4cc(F)ccc34)CC2)cc1)N(Cc1c(F)cc(F)cc1F)C1CCNCC1 (stereo not given)
IC50 [1]: 0.0364 µM | inhibition at 10 µM [2]: 83.6%

O=C(NCc1ccc(OCC(O)CN2CCN(c3nsc4ccccc34)CC2)cc1)N(Cc1ccc(F)cc1)C1CCNCC1 (stereo not given)
IC50 [1]: 0.0542 µM

O=C(c1ccc(F)cc1)C1CCN(CC(O)COc2ccc(CNC(=O)N(Cc3ccc(F)cc3)C3CCNCC3)cc2)CC1 (stereo not given)
IC50 [1]: 0.667 µM
